Assay results: patent publication US20020137929A1, “1 - (3-heterocyclylphenyl) isothiourea, -isourea, -guanidine and -amidine herbicidal agents” (Intellectual Property Department, BASF Aktiengesellschaft, priority 1998, published 2002)

Tests used:
ZEAMX (Corn, Field) = assay: Postemergence herbicidal evaluation; type: in vivo, Zea mays; conditions: postemergence
Method in brief: (§1)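 Two-week seedlings sprayed postemergence at 40 psi; formulation: 1:1 acetone/water, 0.5% TWEEN 20; application ≈0.0156–0.500 kg/ha. Greenhouse grow-out, then 0–9 visual scoring at 4–5 weeks.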

CYPSE (Flatsedge) [1] = assay: Postemergence weed control under flooded paddy conditions; type: in vivo, Cyperus serotinus; conditions: postemergence weeds, 3-4 weeks after treatment
Method in brief: (§2)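 Injury ratings (0–9 scale covering stand, vigor, malformation, size, chlorosis and overall appearance versus control) were made three to four weeks after treatment. Test material, about 0.0313 to 0.500 kg/ha a.i. in 50/50 v/v aqueous/acetone, was added to flood water 1.5 to 3 cm deep over 3 to 5 cm weeds and 1.5 to 2.5 leaf rice.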

[2] = tested on: SAGPY (Arrowhead (Pygmaea)); assay: as above; type: in vivo, Sagittaria pygmaea; conditions: postemergence weeds, 3-4 weeks after treatment
Method in brief: as §2

AMBEL (Ragweed, Common) = assay: Preemergence herbicidal evaluation; type: in vivo, Ambrosia artemisifolia; conditions: rated 4-5 weeks after treatment
Method in brief: (§3)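 Steps: mix seeds into potting soil; plant atop ~1 inch soil; spray compound in aqueous acetone (~0.0156-0.500 kg/ha equivalent); maintain in greenhouse with watering; rate visually 0-9 versus control at 4-5 weeks.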

MOOVA (Monochoria) = assay: Preemergence weed control under flooded paddy conditions; type: in vivo, Monochoria vaginalis; conditions: rated 3-4 weeks after treatment
Method in brief: (§4)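 Visual injury scored 0-9 against control three to four weeks post-treatment, greenhouse-grown. Application: acetone/water (50/50) solutions dosed directly into flood water (1.5-3 cm over silt loam, planted top 0.5 cm), roughly 0.0313 to 0.500 kg/ha active ingredient.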

[3] = tested on: GLXMAW (Soybean, Williams); assay: Preemergence herbicidal evaluation; type: in vivo, Glycine max, (L.) Merr. cv Williams; conditions: rated 4-5 weeks after treatment
Method in brief: as §3

CASOB (Sicklepod) = assay: Postemergence herbicidal evaluation; type: in vivo, Cassia obtusifolia; conditions: postemergence
Method in brief: as §1

CYPSE (Flatsedge) [4] = assay: Preemergence weed control under flooded paddy conditions; type: in vivo, Cyperus serotinus; conditions: rated 3-4 weeks after treatment
Method in brief: as §4

ORYSAT (Rice, Tebonnet) [5] = assay: Postemergence herbicidal evaluation; type: in vivo, Oryza sativa, (L.) Tebonnet; conditions: postemergence
Method in brief: as §1

ORYSAT (Rice, Tebonnet) [6] = assay: Preemergence herbicidal evaluation; type: in vivo, Oryza sativa, (L.) Tebonnet; conditions: rated 4-5 weeks after treatment
Method in brief: as §3

[7] = tested on: CHEAL (Lambsquarters, Common); assay: Postemergence herbicidal evaluation; type: in vivo, Chenopodium album; conditions: postemergence
Method in brief: as §1

SETVI (Foxtail, Green) = assay: Preemergence herbicidal evaluation; type: in vivo, Setaria viridis; conditions: rated 4-5 weeks after treatment
Method in brief: as §3

CYPIR (Rice Flatsedge) = assay: Postemergence weed control under flooded paddy conditions; type: in vivo, Cyperus iria; conditions: postemergence weeds, 3-4 weeks after treatment
Method in brief: as §2

GALAP (Galium) = assay: Postemergence herbicidal evaluation; type: in vivo, Galium aparine; conditions: postemergence
Method in brief: as §1

SMILES: COC(=O)CN1C(=O)CSC1=Nc1cc(-n2c(=O)cc(C(F)(F)F)n(C)c2=O)c(F)cc1Cl [Compound 17, Methyl 2-{{2-chloro-5-[3,6-dihydro-3-methyl-2,6-dioxo-4-(trifluoromethyl)-1(2H)-pyrimidinyl]-4-fluorophenyl}imino}-4-oxo-3-thiazolidineacetate]
- ZEAMX herbicidal rating (ZEAMX (Corn, Field); rate 0.0156 kg/ha): 7.0
- ZEAMX herbicidal rating (ZEAMX (Corn, Field); rate 0.0313 kg/ha): 7.3
- ZEAMX herbicidal rating (ZEAMX (Corn, Field); rate 0.0625 kg/ha): 7.8
- ZEAMX herbicidal rating (ZEAMX (Corn, Field); rate 0.1250 kg/ha): 7.8
- Herbicidal rating CYPSE (CYPSE (Flatsedge) [1]; rate 0.0313 kg/ha): 9.0
- Herbicidal rating CYPSE (CYPSE (Flatsedge) [1]; rate 0.0625 kg/ha): 9.0
- Herbicidal rating CYPSE (CYPSE (Flatsedge) [1]; rate 0.1250 kg/ha): 9.0
- Herbicidal rating CYPSE (CYPSE (Flatsedge) [1]; rate 0.2500 kg/ha): 9.0
- Herbicidal rating SAGPY ([2]; rate 0.0313 kg/ha): 0.0
- Herbicidal rating SAGPY ([2]; rate 0.0625 kg/ha): 0.0
- Herbicidal rating SAGPY ([2]; rate 0.1250 kg/ha): 4.0
- Herbicidal rating SAGPY ([2]; rate 0.2500 kg/ha): 4.0
- AMBEL preemergence herbicidal rating (AMBEL (Ragweed, Common); rate 0.0156 kg/ha): 0.0
- AMBEL preemergence herbicidal rating (AMBEL (Ragweed, Common); rate 0.0313 kg/ha): 0.7
- AMBEL preemergence herbicidal rating (AMBEL (Ragweed, Common); rate 0.0625 kg/ha): 1.7
- AMBEL preemergence herbicidal rating (AMBEL (Ragweed, Common); rate 0.1250 kg/ha): 4.3
- AMBEL preemergence herbicidal rating (AMBEL (Ragweed, Common); rate 0.2500 kg/ha): 6.7
- AMBEL preemergence herbicidal rating (AMBEL (Ragweed, Common); rate 0.5000 kg/ha): 9.0
- Herbicidal rating MOOVA (MOOVA (Monochoria); 0.0313 kg/ha): 9.0
- Herbicidal rating MOOVA (MOOVA (Monochoria); 0.0625 kg/ha): 9.0
- Herbicidal rating MOOVA (MOOVA (Monochoria); 0.1250 kg/ha): 9.0
- Herbicidal rating MOOVA (MOOVA (Monochoria); 0.2500 kg/ha): 9.0
- GLXMAW preemergence herbicidal rating ([3]; rate 0.0156 kg/ha): 0.0
- GLXMAW preemergence herbicidal rating ([3]; rate 0.0313 kg/ha): 0.0
- GLXMAW preemergence herbicidal rating ([3]; rate 0.0625 kg/ha): 0.3
- GLXMAW preemergence herbicidal rating ([3]; rate 0.1250 kg/ha): 0.3
- GLXMAW preemergence herbicidal rating ([3]; rate 0.2500 kg/ha): 3.3
- GLXMAW preemergence herbicidal rating ([3]; rate 0.5000 kg/ha): 6.5
- CASOB herbicidal rating (CASOB (Sicklepod); rate 0.0156 kg/ha): 0.0
- CASOB herbicidal rating (CASOB (Sicklepod); rate 0.0313 kg/ha): 1.0
- CASOB herbicidal rating (CASOB (Sicklepod); rate 0.0625 kg/ha): 1.0
- CASOB herbicidal rating (CASOB (Sicklepod); rate 0.1250 kg/ha): 5.5
- Herbicidal rating CYPSE (CYPSE (Flatsedge) [4]; 0.0313 kg/ha): 9.0
- Herbicidal rating CYPSE (CYPSE (Flatsedge) [4]; 0.0625 kg/ha): 9.0
- Herbicidal rating CYPSE (CYPSE (Flatsedge) [4]; 0.1250 kg/ha): 9.0
- Herbicidal rating CYPSE (CYPSE (Flatsedge) [4]; 0.2500 kg/ha): 9.0
- ORYSAT herbicidal rating (ORYSAT (Rice, Tebonnet) [5]; rate 0.0156 kg/ha): 1.8
- ORYSAT herbicidal rating (ORYSAT (Rice, Tebonnet) [5]; rate 0.0313 kg/ha): 3.0
- ORYSAT herbicidal rating (ORYSAT (Rice, Tebonnet) [5]; rate 0.0625 kg/ha): 3.5
- ORYSAT herbicidal rating (ORYSAT (Rice, Tebonnet) [5]; rate 0.1250 kg/ha): 5.0
- ORYSAT preemergence herbicidal rating (ORYSAT (Rice, Tebonnet) [6]; rate 0.0156 kg/ha): 0.0
- ORYSAT preemergence herbicidal rating (ORYSAT (Rice, Tebonnet) [6]; rate 0.0313 kg/ha): 0.0
- ORYSAT preemergence herbicidal rating (ORYSAT (Rice, Tebonnet) [6]; rate 0.0625 kg/ha): 1.0
- ORYSAT preemergence herbicidal rating (ORYSAT (Rice, Tebonnet) [6]; rate 0.1250 kg/ha): 1.0
- ORYSAT preemergence herbicidal rating (ORYSAT (Rice, Tebonnet) [6]; rate 0.2500 kg/ha): 3.3
- ORYSAT preemergence herbicidal rating (ORYSAT (Rice, Tebonnet) [6]; rate 0.5000 kg/ha): 6.5
- CHEAL herbicidal rating ([7]; rate 0.0156 kg/ha): 2.5
- CHEAL herbicidal rating ([7]; rate 0.0313 kg/ha): 3.0
- CHEAL herbicidal rating ([7]; rate 0.0625 kg/ha): 4.0
- CHEAL herbicidal rating ([7]; rate 0.1250 kg/ha): 8.0
- SETVI preemergence herbicidal rating (SETVI (Foxtail, Green); rate 0.0156 kg/ha): 0.5
- SETVI preemergence herbicidal rating (SETVI (Foxtail, Green); rate 0.0313 kg/ha): 1.3
- SETVI preemergence herbicidal rating (SETVI (Foxtail, Green); rate 0.0625 kg/ha): 2.3
- SETVI preemergence herbicidal rating (SETVI (Foxtail, Green); rate 0.1250 kg/ha): 6.7
- SETVI preemergence herbicidal rating (SETVI (Foxtail, Green); rate 0.2500 kg/ha): 9.0
- SETVI preemergence herbicidal rating (SETVI (Foxtail, Green); rate 0.5000 kg/ha): 9.0
- Herbicidal rating CYPIR (CYPIR (Rice Flatsedge); rate 0.0313 kg/ha): 0.0
- Herbicidal rating CYPIR (CYPIR (Rice Flatsedge); rate 0.0625 kg/ha): 0.0
- Herbicidal rating CYPIR (CYPIR (Rice Flatsedge); rate 0.1250 kg/ha): 6.0
- Herbicidal rating CYPIR (CYPIR (Rice Flatsedge); rate 0.2500 kg/ha): 9.0
- GALAP herbicidal rating (GALAP (Galium); rate 0.0156 kg/ha): 1.5
- GALAP herbicidal rating (GALAP (Galium); rate 0.0313 kg/ha): 3.5
- GALAP herbicidal rating (GALAP (Galium); rate 0.0625 kg/ha): 5.5
- GALAP herbicidal rating (GALAP (Galium); rate 0.1250 kg/ha): 6.0
